Tested on: MV-4-11 cells
Test: Gene expression microarray analysis (Affymetrix PrimeView) and GSEA
Assay type: cell-based, human
Design: RFU PODN (11730768_x_at) / Fold change /veh PODN (11730768_x_at) / RFU LINC00158 (11744669_a_at) / Fold change /veh LINC00158 (11744669_a_at) / RFU DUSP10 (11751237_a_at) / Fold change /veh DUSP10 (11751237_a_at) / RFU ID3 (11757404_x_at) / Fold change /veh ID3 (11757404_x_at) / RFU PLEKHG5 (11737974_s_at) / Fold change /veh PLEKHG5 (11737974_s_at) / RFU LRRC4B (11730491_at) / Fold change /veh LRRC4B (11730491_at) / RFU GIMAP4 (11747438_a_at) / Fold change /veh GIMAP4 (11747438_a_at) / RFU KRT8 (11758183_x_at) / Fold change /veh KRT8 (11758183_x_at) / RFU CNN1 (11734310_a_at) / Fold change /veh CNN1 (11734310_a_at) / RFU VPS37D (11726825_at) / Fold change /veh VPS37D (11726825_at) / RFU C10orf10 (11716522_x_at) / Fold change /veh C10orf10 (11716522_x_at) / RFU KIR2DL2 /// KIR2DL4 /// KIR2DL5A /// KIR2DL5B /// KIR2DS1 /// KIR2DS2 /// KIR2DS3 /// KIR2DS4 /// KIR3DL3 /// KIR3DL3 /// KIR3DS1 (11738374_at) / Fold change /veh KIR2DL2 /// KIR2DL4 /// KIR2DL5A /// KIR2DL5B /// KIR2DS1 /// KIR2DS2 /// KIR2DS3 /// KIR2DS4 /// KIR3DL3 /// KIR3DL3 /// KIR3DS1 (11738374_at) / RFU C1QL1 (11718748_at) / Fold change /veh C1QL1 (11718748_at) / RFU TMPRSS4 (11747572_a_at) / Fold change /veh TMPRSS4 (11747572_a_at) / RFU HAMP (11756126_x_at) / Fold change /veh HAMP (11756126_x_at) / RFU RNFT2 (11725882_a_at) / Fold change /veh RNFT2 (11725882_a_at) / RFU NR4A2 (11747474_a_at) / Fold change /veh NR4A2 (11747474_a_at) / RFU ABCC12 (11746883_a_at) / Fold change /veh ABCC12 (11746883_a_at) / RFU TMEM136 (11760407_x_at) / Fold change /veh TMEM136 (11760407_x_at) / RFU CLDN22 /// WWC2 (11732394_at) / Fold change /veh CLDN22 /// WWC2 (11732394_at) / RFU HLA-DPB1 (11760878_x_at) / Fold change /veh HLA-DPB1 (11760878_x_at) / RFU SPINT1 (11716480_a_at) / Fold change /veh SPINT1 (11716480_a_at) / RFU GAP43 (11754022_s_at) / Fold change /veh GAP43 (11754022_s_at) / RFU A4GNT (11735810_at) / Fold change /veh A4GNT (11735810_at) / RFU PRB3 (11715151_x_at) / Fold change /veh PRB3 (11715151_x_at) / RFU TUBB4B (11761932_at) / Fold change /veh TUBB4B (11761932_at) / RFU CAPN14 (11732068_a_at) / Fold change /veh CAPN14 (11732068_a_at) / RFU TMCC2 (11721928_a_at) / Fold change /veh TMCC2 (11721928_a_at) / RFU IRGQ (11745062_a_at) / Fold change /veh IRGQ (11745062_a_at) / RFU FAM174B (11720279_a_at) / Fold change /veh FAM174B (11720279_a_at) / RFU TMPRSS4 (11748680_a_at) / Fold change /veh TMPRSS4 (11748680_a_at) / RFU FAM212B (11763350_a_at) / Fold change /veh FAM212B (11763350_a_at) / RFU PLEKHG5 (11743358_a_at) / Fold change /veh PLEKHG5 (11743358_a_at) / RFU ZSCAN30 (11745921_a_at) / Fold change /veh ZSCAN30 (11745921_a_at) / RFU CMKLR1 (11741424_a_at) / Fold change /veh CMKLR1 (11741424_a_at) / RFU LOC101060620 /// MAPK8IP1 (11723275_at) / Fold change /veh LOC101060620 /// MAPK8IP1 (11723275_at) / RFU SPTSSB (11747773_x_at) / Fold change /veh SPTSSB (11747773_x_at) / RFU PRSS12 (11739890_at) / Fold change /veh PRSS12 (11739890_at) / RFU BIN1 (11741810_x_at) / Fold change /veh BIN1 (11741810_x_at) / RFU WNT11 (11732464_a_at) / Fold change /veh WNT11 (11732464_a_at) / RFU C10orf10 (11716521_a_at) / Fold change /veh C10orf10 (11716521_a_at) / RFU C5orf56 (11738089_at) / Fold change /veh C5orf56 (11738089_at) / RFU CYB561 (11721691_x_at) / Fold change /veh CYB561 (11721691_x_at) / RFU ANKRD19P (11752326_a_at) / Fold change /veh ANKRD19P (11752326_a_at) / RFU OR2T12 /// OR2T33 /// OR2T8 (11738714_s_at) / Fold change /veh OR2T12 /// OR2T33 /// OR2T8 (11738714_s_at) / RFU VCAN (11748164_a_at) / Fold change /veh VCAN (11748164_a_at) / RFU JSRP1 (11732532_at) / Fold change /veh JSRP1 (11732532_at) / RFU KRTAP10-11 (11738290_x_at) / Fold change /veh KRTAP10-11 (11738290_x_at) / RFU MYO3A (11730013_a_at) / Fold change /veh MYO3A (11730013_a_at) / RFU EBF3 (11725865_a_at) / Fold change /veh EBF3 (11725865_a_at) / RFU CAMK2N1 (11719241_x_at) / Fold change /veh CAMK2N1 (11719241_x_at) / RFU C5orf56 (11738088_a_at) / Fold change /veh C5orf56 (11738088_a_at) / RFU OLFML3 (11715873_a_at) / Fold change /veh OLFML3 (11715873_a_at) / RFU LOC100653217 /// NTM (11731650_a_at) / Fold change /veh LOC100653217 /// NTM (11731650_a_at) / RFU MAPK11 (11762145_a_at) / Fold change /veh MAPK11 (11762145_a_at) / RFU FIZ1 (11724087_x_at) / Fold change /veh FIZ1 (11724087_x_at) / RFU OASL (11726364_x_at) / Fold change /veh OASL (11726364_x_at) / RFU SOX15 (11748057_x_at) / Fold change /veh SOX15 (11748057_x_at) / RFU CD79A (11719716_a_at) / Fold change /veh CD79A (11719716_a_at) / RFU HIST1H1D (11736915_at) / Fold change /veh HIST1H1D (11736915_at) / RFU CASKIN2 (11723855_a_at) / Fold change /veh CASKIN2 (11723855_a_at) / RFU LOC730098 (11760151_x_at) / Fold change /veh LOC730098 (11760151_x_at) / RFU OR4N2 (11742367_at) / Fold change /veh OR4N2 (11742367_at) / RFU PRRT2 (11749266_a_at) / Fold change /veh PRRT2 (11749266_a_at) / RFU SNX32 (11753110_a_at) / Fold change /veh SNX32 (11753110_a_at) / RFU CDHR5 (11726645_a_at) / Fold change /veh CDHR5 (11726645_a_at) / RFU RCAN1 (11760418_a_at) / Fold change /veh RCAN1 (11760418_a_at) / RFU FAM167A (11723789_a_at) / Fold change /veh FAM167A (11723789_a_at) / RFU FAM26E (11764081_at) / Fold change /veh FAM26E (11764081_at) / RFU ISYNA1 (11749810_s_at) / Fold change /veh ISYNA1 (11749810_s_at) / RFU ACY1 (11761880_at) / Fold change /veh ACY1 (11761880_at) / RFU 11764098_at / Fold change /veh 11764098_at / RFU SAMD14 (11745864_x_at) / Fold change /veh SAMD14 (11745864_x_at) / RFU NPB (11741838_a_at) / Fold change /veh NPB (11741838_a_at) / RFU TMPRSS6 (11731388_a_at) / Fold change /veh TMPRSS6 (11731388_a_at) / RFU KRTAP10-2 (11738614_at) / Fold change /veh KRTAP10-2 (11738614_at) / RFU ARHGAP8 /// PRR5-ARHGAP8 (11727945_x_at) / Fold change /veh ARHGAP8 /// PRR5-ARHGAP8 (11727945_x_at) / RFU KRTAP5-7 /// NADSYN1 (11734609_at) / Fold change /veh KRTAP5-7 /// NADSYN1 (11734609_at) / RFU RASL12 (11751679_a_at) / Fold change /veh RASL12 (11751679_a_at) / RFU CDKN2B (11736163_a_at) / Fold change /veh CDKN2B (11736163_a_at) / RFU PRF1 (11729649_at) / Fold change /veh PRF1 (11729649_at) / RFU, ZNF638 /// ZNF638-IT1 / Fold change vs veh, ZNF638 /// ZNF638-IT1 / RFU, PANK3 / Fold change vs veh, PANK3 / RFU, SH3YL1 / Fold change vs veh, SH3YL1 / RFU, ZEB2 / Fold change vs veh, ZEB2 / RFU, NRIP1 / Fold change vs veh, NRIP1 / RFU, PTTG1IP / Fold change vs veh, PTTG1IP / RFU, CAPN2 / Fold change vs veh, CAPN2 / RFU, MED14 / Fold change vs veh, MED14 / RFU, SNORA58 / Fold change vs veh, SNORA58 / RFU, C1orf63 / Fold change vs veh, C1orf63 / RFU, LRRFIP1 / Fold change vs veh, LRRFIP1 / RFU, NDUFAF7 / Fold change vs veh, NDUFAF7 / RFU, SLC12A2 / Fold change vs veh, SLC12A2 / RFU, IBTK / Fold change vs veh, IBTK / RFU, ESF1 / Fold change vs veh, ESF1 / Fold change vs veh, TMEM50B / RFU, TAOK1 / Fold change vs veh, TAOK1 / RFU, ACBD3 / Fold change vs veh, ACBD3 / RFU, TMA16 / Fold change vs veh, TMA16 / RFU, RWDD3 / Fold change vs veh, RWDD3 / RFU, BCAT1 / Fold change vs veh, BCAT1 / RFU, EDEM3 / Fold change vs veh, EDEM3 / RFU, TMEM33 / Fold change vs veh, TMEM33 / RFU, WDR75 / Fold change vs veh, WDR75 / RFU, AHCTF1 / Fold change vs veh, AHCTF1 / RFU, TFRC / Fold change vs veh, TFRC / RFU, ZDHHC17 / Fold change vs veh, ZDHHC17 / RFU, NOM1 / Fold change vs veh, NOM1 / RFU, ARL8B / Fold change vs veh, ARL8B / RFU, ZBTB11 / Fold change vs veh, ZBTB11 / RFU, TAMM41 / Fold change vs veh, TAMM41 / RFU, KIAA1704 /// LOC100996395 / Fold change vs veh, KIAA1704 /// LOC100996395 / RFU, ING1 / Fold change vs veh, ING1 / RFU, TRMT61B / Fold change vs veh, TRMT61B / RFU, FUBP3 / Fold change vs veh, FUBP3 / RFU, TP53 / Fold change vs veh, TP53 / RFU, TNKS2 / Fold change vs veh, TNKS2 / RFU, ZFP14 / Fold change vs veh, ZFP14 / RFU, ACTR2 / Fold change vs veh, ACTR2 / RFU, PPP3R1 / Fold change vs veh, PPP3R1 / RFU, PIK3R1 / Fold change vs veh, PIK3R1 / RFU, HNRNPA1 / Fold change vs veh, HNRNPA1 / RFU, RNF170 / Fold change vs veh, RNF170 / RFU, ZNF28 / Fold change vs veh, ZNF28 / RFU, RNGTT / Fold change vs veh, RNGTT / RFU, OGT / Fold change vs veh, OGT / RFU, BRD1 / Fold change vs veh, BRD1 / RFU, MARS / Fold change vs veh, MARS / RFU, ZNF655 / Fold change vs veh, ZNF655 / RFU, FAHD1 / Fold change vs veh, FAHD1 / RFU, BDP1 / Fold change vs veh, BDP1 / RFU, LRRCC1 / Fold change vs veh, LRRCC1 / RFU, ARID1A / Fold change vs veh, ARID1A / RFU, ZNF146 / Fold change vs veh, ZNF146 / RFU, ZNF330 / Fold change vs veh, ZNF330 / RFU, GPN3 / Fold change vs veh, GPN3 / RFU, C9orf123 / Fold change vs veh, C9orf123 / RFU, N4BP2L2 / Fold change vs veh, N4BP2L2 / RFU, ARFIP1 / Fold change vs veh, ARFIP1 / RFU, FAM179B / Fold change vs veh, FAM179B / RFU, BCL10 / Fold change vs veh, BCL10 / RFU, UHRF1BP1L / Fold change vs veh, UHRF1BP1L / RFU, BET1 / Fold change vs veh, BET1 / RFU, CNOT2 / Fold change vs veh, CNOT2 / RFU, ZNF268 / Fold change vs veh, ZNF268 / Fold change vs veh, ZNF507 / RFU, DGCR2 / Fold change vs veh, DGCR2 / RFU, WDSUB1 / Fold change vs veh, WDSUB1 / Fold change vs veh, HSP90B1 /// MIR3652 / RFU, ADSS / Fold change vs veh, ADSS / RFU, GK / Fold change vs veh, GK / RFU, ZNF148 / Fold change vs veh, ZNF148 / RFU, TAF9 / Fold change vs veh, TAF9 / RFU, SLC1A5 / Fold change vs veh, SLC1A5 / RFU, SLMO2 / Fold change vs veh, SLMO2 / RFU, ABCC4 / Fold change vs veh, ABCC4 / RFU, LOC101060439 /// RAP1B / Fold change vs veh, LOC101060439 /// RAP1B / RFU, RFX7 / Fold change vs veh, RFX7 / RFU, GTPBP10 / Fold change vs veh, GTPBP10 / RFU, CNEP1R1 / Fold change vs veh, CNEP1R1 / RFU, BIVM-ERCC5 /// ERCC5 / Fold change vs veh, BIVM-ERCC5 /// ERCC5 / RFU, ILF3 / Fold change vs veh, ILF3 / RFU 11762660_at / Fold change /veh 11762660_at / RFU VCAN (11757783_s_at) / Fold change /veh VCAN (11757783_s_at) / RFU DDX43 (11728927_at) / Fold change /veh DDX43 (11728927_at) / RFU KRT8 (11758188_x_at) / Fold change /veh KRT8 (11758188_x_at) / RFU NKD1 (11759106_at) / Fold change /veh NKD1 (11759106_at) / RFU SRD5A1 (11742802_a_at) / Fold change /veh SRD5A1 (11742802_a_at) / RFU TPSAB1 /// TPSB2 (11721975_s_at) / Fold change /veh TPSAB1 /// TPSB2 (11721975_s_at) / RFU GSTM3 (11746129_a_at) / Fold change /veh GSTM3 (11746129_a_at) / RFU IL23R (11737362_x_at) / Fold change /veh IL23R (11737362_x_at) / RFU TMEM51 (11727254_a_at) / Fold change /veh TMEM51 (11727254_a_at) / RFU PIWIL2 (11732686_x_at) / Fold change /veh PIWIL2 (11732686_x_at) / RFU ORM1 (11744905_x_at) / Fold change /veh ORM1 (11744905_x_at) / RFU CCDC152 (11743942_at) / Fold change /veh CCDC152 (11743942_at) / RFU ECM1 (11717891_a_at) / Fold change /veh ECM1 (11717891_a_at) / RFU IL23R (11748794_a_at) / Fold change /veh IL23R (11748794_a_at) / RFU TNFAIP8L3 (11732012_x_at) / Fold change /veh TNFAIP8L3 (11732012_x_at) / RFU MBOAT4 (11741988_at) / Fold change /veh MBOAT4 (11741988_at) / RFU 11764193_at / Fold change /veh 11764193_at / RFU TMEM53 (11763286_at) / Fold change /veh TMEM53 (11763286_at) / RFU MAGEB2 (11727129_at) / Fold change /veh MAGEB2 (11727129_at) / RFU TMEM200A (11744735_a_at) / Fold change /veh TMEM200A (11744735_a_at) / RFU CCDC152 (11751479_a_at) / Fold change /veh CCDC152 (11751479_a_at) / RFU FAM211A (11726209_a_at) / Fold change /veh FAM211A (11726209_a_at) / RFU RGS16 (11746705_a_at) / Fold change /veh RGS16 (11746705_a_at) / RFU VCAN (11755009_s_at) / Fold change /veh VCAN (11755009_s_at) / RFU RHOB (11743442_s_at) / Fold change /veh RHOB (11743442_s_at) / RFU RGS16 (11720943_a_at) / Fold change /veh RGS16 (11720943_a_at) / RFU RGS16 (11720944_at) / Fold change /veh RGS16 (11720944_at) / RFU, VPS4B / Fold change vs veh, VPS4B / RFU, CREB1 / Fold change vs veh, CREB1 / RFU, DNAJC13 / Fold change vs veh, DNAJC13 / RFU, GNAQ / Fold change vs veh, GNAQ / RFU, CDK5R1 / Fold change vs veh, CDK5R1 / RFU, ZRANB3 / Fold change vs veh, ZRANB3 / RFU, CUL4A / Fold change vs veh, CUL4A / RFU, CCNY / Fold change vs veh, CCNY / RFU, UFL1 / Fold change vs veh, UFL1 / RFU, COG3 / Fold change vs veh, COG3 / RFU, DIAPH2 / Fold change vs veh, DIAPH2 / RFU, SKA2 / Fold change vs veh, SKA2 / RFU, AFF3 / Fold change vs veh, AFF3 / RFU, LMF1 / Fold change vs veh, LMF1 / RFU, IPO11 / Fold change vs veh, IPO11 / RFU, DFFB / Fold change vs veh, DFFB / RFU, FOXP1 / Fold change vs veh, FOXP1 / RFU, CARD8 / Fold change vs veh, CARD8 / RFU, STRN3 / Fold change vs veh, STRN3 / RFU, ADK / Fold change vs veh, ADK / RFU, RASSF2 / Fold change vs veh, RASSF2 / RFU, WIPF1 / Fold change vs veh, WIPF1 / RFU, LARP1B / Fold change vs veh, LARP1B / RFU, RASA1 / Fold change vs veh, RASA1 / RFU, RB1 / Fold change vs veh, RB1 / RFU, PPFIA1 / Fold change vs veh, PPFIA1 / RFU, MAT2A / Fold change vs veh, MAT2A / RFU, CCT5 / Fold change vs veh, CCT5 / RFU, WDR92 / Fold change vs veh, WDR92 / RFU, CUX1 / Fold change vs veh, CUX1 / RFU, TTC7A / Fold change vs veh, TTC7A / RFU, TMEM135 / Fold change vs veh, TMEM135 / RFU, DEPTOR / Fold change vs veh, DEPTOR / RFU, CPM / Fold change vs veh, CPM / RFU, DNAJB6 / Fold change vs veh, DNAJB6 / RFU, CACNA2D3 / Fold change vs veh, CACNA2D3 / RFU, DTX4 / Fold change vs veh, DTX4 / RFU, TFCP2 / Fold change vs veh, TFCP2 / RFU, GMCL1 /// GMCL1P1 / Fold change vs veh, GMCL1 /// GMCL1P1 / RFU, AEBP2 / Fold change vs veh, AEBP2 / RFU, SNHG1 /// SNORD22 /// SNORD25 /// SNORD26 /// SNORD27 /// SNORD28 /// SNORD29 /// SNORD31 / Fold change vs veh, SNHG1 /// SNORD22 /// SNORD25 /// SNORD26 /// SNORD27 /// SNORD28 /// SNORD29 /// SNORD31 / Fold change (Aza/veh), C12orf56 (ProbeSet 11735607_a_at) / Fold change (ACY-1035/veh), C12orf56 (ProbeSet 11735607_a_at) / Fold change (Aza/veh), FGFR1OP (ProbeSet 11751329_s_at) / Fold change (ACY-1035/veh), FGFR1OP (ProbeSet 11751329_s_at) / Fold change (Aza/veh), VPS36 (ProbeSet 11739960_a_at) / Fold change (ACY-1035/veh), VPS36 (ProbeSet 11739960_a_at) / RFU SYPL1 (11715823_x_at) / Fold change /veh SYPL1 (11715823_x_at) / RFU IGFBP7 (11715501_s_at) / Fold change /veh IGFBP7 (11715501_s_at) / RFU REEP3 (11722064_at) / Fold change /veh REEP3 (11722064_at) / RFU IGLL1 (11728026_x_at) / Fold change /veh IGLL1 (11728026_x_at): dose or concentration left out as unconfirmed
Details: MV-4-11 cells, 48 hours

SMILES: Nc1ncn([C@@H]2O[C@H](CO)[C@@H](O)[C@H]2O)c(=O)n1 [azacitidine]
- Fold change /veh TPSAB1 /// TPSB2 (11721975_s_at): 1.21

From article PMC5218480 (PLoS ONE, 2017)
